Publication PMC9699003, “Arene Variation of Highly Cytotoxic Tridentate Naphthoquinone-Based Ruthenium(II) Complexes and In-Depth In Vitro Studies” (Pharmaceutics, 2022)
Read-outs that look alike come from different tables or passages of the source.

Assays:
[1] = tested on: A549 non-small cell lung cancer cells; conditions: A549, MTT, 96 h exposure; cited from earlier work
[2] = tested on: SW480 colon carcinoma cells; conditions: SW480, MTT, 96 h exposure; cited from earlier work
[3] = tested on: CH1/PA-1 ovarian teratocarcinoma cells; conditions: CH1/PA-1, MTT, 96 h exposure; cited from earlier work
[4] = tested on: SW480 colon carcinoma cells; assay: MTT assay (cytotoxicity); assay type: cell-based, human; conditions: 96 h exposure
Procedure: (§1) CH1/PA-1 ovarian teratocarcinoma cells (provided by L. R. Kelland, CRC Centre for Cancer Therapeutics, Institute of Cancer Research, Sutton, UK; confirmed by STR profiling as PA-1 ovarian teratocarcinoma cells at Multiplexion, Heidelberg, Germany), SW480 colon carcinoma and A549 non-small cell lung cancer cells (both obtained from the American Type Culture Collection, Manassas, VA, USA) were grown as adherent cultures in 75 cm² culture flasks (CytoOne, Starlab, Hamburg, Germany) by using minimal essential medium (MEM) supplemented with 1 mM sodium pyruvate, 4 mM L-glutamine, 1% (v/v) nonessential amino acids from 100-fold stock (all purchased from Sigma-Aldrich) and 10% heat-inactivated fetal bovine serum (BioWest, Nuaillé, France). Cells were maintained under standard culture conditions with 5% CO2 at 37 °C in a humidified atmosphere.
(§2) The 3-(4,5-dimethylthiazol-2-yl)-2,5-diphenyl-2H-tetrazolium bromide (MTT, Acros Organics, Geel, Belgium) assay was used to detect the cytotoxicity of the compounds after 24 h and 96 h incubation. In brief, cells were harvested from culture flasks and the following cell numbers (each in 100 µL) were seeded into 96-well culture plates (CytoOne, tissue culture treated, Starlab, Hamburg, Germany) for 24 h incubation: 1 × 10^4 (CH1/PA-1), 1 × 10^4 (SW480) and 1.5 × 10^4 (A549) cells per well; and for 96 h incubation: 1 × 10^3 (CH1/PA-1), 2 × 10^3 (SW480) and 3 × 10^3 (A549) cells per well. After 24 h, cells resuming their exponential growth rate were treated with test compounds at nine concentrations obtained by serial two-fold dilution. Stock solutions were prepared in DMSO (20 mM or 40 mM) and diluted in supplemented MEM. An amount of 100 µL of each concentration was added to the plates in triplicates and cells were exposed for 24 or 96 h. Afterward, the medium was replaced with 100 µL of MTT solution (5 mg/mL) in phosphate-buffered saline (PBS, Sigma-Aldrich), diluted 1:7 in RPMI 1640 medium (supplemented with 4 mM L-glutamine and 10% heat-inactivated FBS). Upon cell-viability-dependent conversion of the yellow, water-soluble tetrazolium salt into purple formazan products for 4 h, the crystals were dissolved in 150 µL DMSO. The absorbance of the resulting solutions, which is directly proportional to the number of viable cells, was measured at 550 nm (and at 690 nm as a reference) with a microplate reader (ELx808, BioTek, Winoosky, VT, USA) and Gen5TM 3.08 software (BioTek). Blank-corrected optical densities were subjected to graphical evaluation and interpolation of IC50 values. At least three biologically and technically independent experiments were performed.

[5] = tested on: CH1/PA-1 ovarian teratocarcinoma cells; assay: MTT assay (cytotoxicity); assay type: cell-based, human; conditions: CH1/PA-1, MTT, 96 h exposure
Procedure: as §1, §2

[6] = tested on: A549 non-small cell lung cancer cells; assay: MTT assay (cytotoxicity); assay type: cell-based, human; conditions: 96 h exposure
Procedure: as §1, §2

Row | Compound | IC50 [1] | IC50 [2] | IC50 [3] | IC50 [4] | IC50 [5] | IC50 [6]
1 | N.N.O=C([O-])C1(C(=O)[O-])CCC1.[Pt+2] [Carboplatin] | 38 ± 3 µM | 42 ± 10 µM | 0.79 ± 0.11 µM | – | – | –
2 | N.N.[Cl][Pt][Cl] [Cisplatin, reference compound] | – | – | – | 2.3 ± 0.2 µM | 0.073 ± 0.001 µM | 3.8 ± 1 µM
3 | O=C1[O][Pt]2([NH][C@@H]3CCCC[C@H]3[NH]2)[O]C1=O [Oxaliplatin] | 0.98 ± 0.21 µM | 0.29 ± 0.05 µM | 0.18 ± 0.01 µM | – | – | –
4 | [Cl][Ru][Cl].[Cl][Ru][Cl].c1ccccc1.c1ccccc1 [[Ru(benzene)Cl2]2] | > 100 µM | > 100 µM | > 100 µM | – | – | –
5 | [Cl][Ru-]1[Cl+][Ru-]([Cl])[Cl+]1.c1ccc2c(c1)CCC2.c1ccc2c(c1)CCC2 [[Ru(indane)Cl2]2] | 257 ± 66 µM | 166 ± 35 µM | 51 ± 13 µM | – | – | –
6 | Cc1ccccc1.Cc1ccccc1.[Cl][Ru-]1[Cl+][Ru-]([Cl])[Cl+]1 [[Ru(toluene)Cl2]2] | > 100 µM | > 100 µM | > 100 µM | – | – | –
